From ChEMBL document CHEMBL3867426, “Synthesis and biological evaluation of 6-fluoro-3-phenyl-7-piperazinyl quinolone derivatives as potential topoisomerase I inhibitors” (Eur J Med Chem, 2016)
Activity calls are given as the source filed them. The calls are words filed in the database; no cut-off is given here.

Tests used:
[1] = Antiproliferative activity against human BGC823 cells after 48 hrs by MTT assay; type: functional, cell-based; conditions: BGC-823, 48 h
[2] = cells; conditions: Homo sapiens, HeLa, 48 h
[3] = cells; conditions: Homo sapiens, HepG2, 48 h
[4] = cells; conditions: Homo sapiens, A549, 48 h
[5] = biological target: T1, DNA topoisomerase 1 (Homo sapiens) (UniProt P11387); experiment: Inhibition of DNA topoisomerase 1 (unknown origin)-mediated relaxation of supercoiled pBR322 plasmid DNA at 100 uM after 30 mins by agarose gel electrophoresis
T1 sequence (whole entry): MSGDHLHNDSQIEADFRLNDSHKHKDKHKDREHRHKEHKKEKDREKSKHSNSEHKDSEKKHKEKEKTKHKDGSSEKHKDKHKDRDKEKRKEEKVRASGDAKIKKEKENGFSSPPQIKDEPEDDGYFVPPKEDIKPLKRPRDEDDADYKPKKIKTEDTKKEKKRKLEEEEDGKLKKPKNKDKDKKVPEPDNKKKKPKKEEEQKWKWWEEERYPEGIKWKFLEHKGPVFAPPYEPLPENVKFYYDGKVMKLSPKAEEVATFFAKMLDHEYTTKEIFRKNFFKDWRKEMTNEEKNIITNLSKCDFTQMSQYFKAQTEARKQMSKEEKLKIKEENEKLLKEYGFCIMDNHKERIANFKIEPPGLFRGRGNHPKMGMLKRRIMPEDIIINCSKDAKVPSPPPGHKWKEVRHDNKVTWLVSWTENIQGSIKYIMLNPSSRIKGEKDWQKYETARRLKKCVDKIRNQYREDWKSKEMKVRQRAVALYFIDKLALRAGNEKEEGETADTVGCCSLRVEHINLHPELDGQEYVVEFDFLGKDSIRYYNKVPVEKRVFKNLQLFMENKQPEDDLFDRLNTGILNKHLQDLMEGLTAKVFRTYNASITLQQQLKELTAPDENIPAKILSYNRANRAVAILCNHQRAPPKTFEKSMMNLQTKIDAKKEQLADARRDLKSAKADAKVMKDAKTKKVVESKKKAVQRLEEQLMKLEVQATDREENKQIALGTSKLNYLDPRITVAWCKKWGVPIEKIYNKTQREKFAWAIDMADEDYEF

[6] = Solubility of the compound in Tris/glycine/SDS buffer at pH 7.9; type: physicochemical
[7] = Antitumor activity against human A549 cells xenografted in BALB/c nude mouse assessed as reduction in tumor volume at 20 mg/kg, iv administered once every 3 days measured on day 18 post dose; type: functional
[8] = Antitumor activity against human A549 cells xenografted in BALB/c nude mouse assessed as reduction in tumor volume at 20 mg/kg, iv administered once every 3 days measured on day 3 post dose; type: functional
[9] = Antitumor activity against human A549 cells xenografted in BALB/c nude mouse assessed as reduction in tumor volume at 20 mg/kg, iv administered once every 3 days measured on day 6 post dose; type: functional
[10] = Antitumor activity against human A549 cells xenografted in BALB/c nude mouse assessed as reduction in tumor volume at 20 mg/kg, iv administered once every 3 days measured on day 9 post dose; type: functional
[11] = Antitumor activity against human A549 cells xenografted in BALB/c nude mouse assessed as reduction in tumor volume at 20 mg/kg, iv administered once every 3 days measured on day 12 post dose; type: functional
[12] = Antitumor activity against human A549 cells xenografted in BALB/c nude mouse assessed as reduction in tumor volume at 20 mg/kg, iv administered once every 3 days measured on day 15 post dose; type: functional
[13] = Antitumor activity against human A549 cells xenografted in BALB/c nude mouse assessed as reduction in tumor volume at 20 mg/kg, iv administered once every 3 days measured on day 21 post dose; type: functional
[14] = Antitumor activity against human A549 cells xenografted in BALB/c nude mouse assessed as reduction in tumor volume at 20 mg/kg, iv administered once every 3 days measured on day 23 post dose; type: functional
[15] = tested on: Mus musculus; experiment: Toxicity in BALB/c nude mouse xenografted with human A549 cells assessed as change in body weight at 20 mg/kg, iv administered once every 3 days for 23 days measured twice per week during compound dosing; type: organism-based; conditions: in vivo
[16] = tested on: Mus musculus; experiment: Toxicity in BALB/c nude mouse xenografted with human A549 cells assessed as mortality at 20 mg/kg, iv administered once every 3 days for 23 days; type: organism-based; conditions: in vivo
[17] = Cell cycle arrest in human A549 cells assessed as accumulation at S phase at 0.5 uM after 24 hrs by propidium iodide staining based flow cytometric analysis (reference value: 26.40%); type: functional
[18] = Cell cycle arrest in human A549 cells assessed as accumulation at G1 phase at 0.5 uM after 24 hrs by propidium iodide staining based flow cytometric analysis (reference value: 46.14%); type: functional
[19] = Cell cycle arrest in human A549 cells assessed as accumulation at G2 phase at 0.5 uM after 24 hrs by propidium iodide staining based flow cytometric analysis (reference value: 22.51%); type: functional
[20] = Antitumor activity against human A549 cells xenografted in BALB/c nude mouse assessed as tumor growth inhibition at 20 mg/kg, iv administered once every 3 days for 23 days relative to control; type: functional; conditions: read-out: TGI
[21] = Solubility of the compound in pH 7.9 Tris/glycine/SDS buffer at 50 uM; type: physicochemical; conditions: pH 7.9, 50 µM

SMILES	IC50 [1] [µM]	IC50 [2] [µM]	IC50 [3] [µM]	IC50 [4] [µM]	inhibition [5]	solubility [6] [µM]	further results
CCn1cc(-c2cccc(Cl)c2)c(=O)c2cc(F)c(N3CCNCC3)cc21	18.4	16.1	15.3	0.78	–	–	–
CCn1cc(-c2ccc(C#N)cc2)c(=O)c2cc(F)c(N3CCNCC3)cc21	18.7	14.6	12.6	1.09	–	–	–
O=c1c(-c2ccc(Cl)cc2)cn(C2CC2)c2cc(N3CCNCC3)c(F)cc12	12.9	9.3	8.02	0.65	Active	> 400	–
CCn1cc(-c2ccc(OC)cc2)c(=O)c2cc(F)c(N3CCNCC3)cc21	46.1	69	57.9	11.6	–	–	–
O=c1c(-c2ccccc2)cn(C2CC2)c2cc(N3CCNCC3)c(F)cc12	7.86	9.99	8.65	0.5	Active	> 400	–
CC[C@@]1(O)C(=O)OCc2c1cc1n(c2=O)Cc2cc3cc(O)ccc3nc2-1 [HYDROXYCAMPTOTHECIN]	–	–	–	–	–	–	T/C [7]: 23.92%; T/C [8]: 91.99%; T/C [9]: 68.37%; T/C [10]: 54.55%; T/C [11]: 29.44%; T/C [12]: 27.97%; T/C [13]: 20%; T/C [14]: 21.68%; Activity [15]: Toxic; Activity [16]: Toxic
COc1cccc(-c2cn(C3CC3)c3cc(N4CCNCC4)c(F)cc3c2=O)c1	0.69	0.92	0.91	0.12	Active	> 400	Activity [17]: 32.2%; T/C [7]: 68.69%; Activity [18]: 48.2%; Activity [19]: 11.8%; T/C [8]: 140.57%; T/C [9]: 114.41%; T/C [10]: 118.67%; T/C [11]: 85.88%; T/C [12]: 73.12%; T/C [13]: 71.52%; T/C [14]: 64.72%; inhibition in vivo at 20 mg/kg [20]: 42.8%; Activity [15]: Non-Toxic; Activity [16]: Non-Toxic
CCn1cc(-c2ccccc2)c(=O)c2cc(F)c(N3CCNCC3)cc21	75.4	35.1	30.1	10.8	–	–	–
O=c1c(-c2ccc(F)cc2)cn(C2CC2)c2cc(N3CCNCC3)c(F)cc12	15.1	14.9	10.6	1.68	Active	> 400	–
O=c1c(-c2cccc(Cl)c2)cn(C2CC2)c2cc(N3CCNCC3)c(F)cc12	0.61	0.89	0.86	0.11	Active	> 400	Activity [17]: 31.2%; T/C [7]: 62.96%; Activity [18]: 44%; Activity [19]: 17.7%; T/C [8]: 87.18%; T/C [9]: 95.42%; T/C [10]: 85.54%; T/C [11]: 58.03%; T/C [12]: 76.4%; T/C [13]: 73.07%; T/C [14]: 74.32%; inhibition in vivo at 20 mg/kg [20]: 29.2%; Activity [15]: Non-Toxic; Activity [16]: Non-Toxic
CCn1cc(-c2nc3ccc([N+](=O)[O-])cc3o2)c(=O)c2cc(F)c(N3CCNC(C)C3)c(F)c21 (configuration not stated)	2.74	2.98	2.65	1.47	–	–	solubility [21]: Insoluble
COc1cccc(-c2cn(C3CC3)c3cc(N4CCN(C)CC4)c(F)cc3c2=O)c1	20.9	14.8	25.4	1.12	–	–	–
CCn1cc(-c2ccc(Cl)cc2)c(=O)c2cc(F)c(N3CCNCC3)cc21	14.6	15.4	24	1.25	–	–	–
COc1ccc(-c2cn(C3CC3)c3cc(N4CCNCC4)c(F)cc3c2=O)cc1	18.9	16.5	20.8	1.87	Active	> 400	–
CCn1cc(-c2cccc(OC)c2)c(=O)c2cc(F)c(N3CCNCC3)cc21	14.7	12.2	13	0.8	–	–	–
CCn1cc(-c2ccc(F)cc2)c(=O)c2cc(F)c(N3CCNCC3)cc21	69.6	60.9	56.2	11.4	–	–	–
O=c1c(-c2cccc(F)c2)cn(C2CC2)c2cc(N3CCNCC3)c(F)cc12	12	9.16	7.38	1.1	Active	> 400	–
CN1CCN(c2cc3c(cc2F)c(=O)c(-c2cccc(Cl)c2)cn3C2CC2)CC1	20.2	15.8	26.5	1.34	–	–	–
CCn1cc(-c2cccc(F)c2)c(=O)c2cc(F)c(N3CCNCC3)cc21	27.3	21.9	27.8	3.06	–	–	–
CC[C@@]1(O)C(=O)OCc2c1cc1n(c2=O)Cc2cc3ccccc3nc2-1 [CAMPTOTHECIN]	1.27	1.41	1.52	0.46	–	–	Activity [17]: 48.1%; Activity [18]: 33.2%; Activity [19]: 11.3%
